Results reported in the supplement of paper PMC4862054.

Columns and labels:
Settings in all cases: incubation time: 72 h
MDA-MB-436 [1] = experiment: normalised response (% of control), CellTox Green; higher = less cell death (100 = DMSO, 0 = benzethonium chloride kill control)
Method in brief: (§1)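 Normalised signals at single concentrations make up the values. They come from breast cancer cell lines seeded (20 µl suspension) into 384-well plates with compound at 5 concentrations in 10-fold steps over a compound-specific 10,000-fold range, incubated 72 h, and read for CellTox Green fluorescence then CellTiter-Glo luminescence. Each plate was normalised to 0.1 % DMSO (100) and a positive kill control (0).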

CAL-85-1 [2] = experiment: as above
Method in brief: as §1

MDA-MB-453 [3] = experiment: as above
Method in brief: as §1

MDA-MB-468 [4] = experiment: as above
Method in brief: as §1

HDQ-P1 [5] = experiment: normalised viability (% of control), CellTiter-Blue; higher = more viable cells (about 100 = DMSO control)
Method in brief: (§2)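 Breast cancer cell lines were treated for 72 h in 384-well format and measured by CellTiter-Blue fluorescence at 560/590 nm. Results were normalised per plate to vehicle (100) and a positive kill control (0). The entry is normalised viability at a single listed concentration of the series.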

CAL-85-1 [6] = experiment: as above
Method in brief: as §2

CAL-148 [7] = experiment: as above
Method in brief: as §2

MDA-MB-453 [8] = experiment: as above
Method in brief: as §2

DU-4475 [9] = experiment: as above
Method in brief: as §2

CAL-51 [10] = experiment: as above
Method in brief: as §2

MDA-MB-436 [11] = experiment: normalised response (% of control), CellTiter-Glo; higher = more viable cells (100 = DMSO, 0 = benzethonium chloride kill control)
Method in brief: as §1

BT-549 = experiment: as above
Method in brief: as §1

CAL-120 = experiment: as above
Method in brief: as §1

HDQ-P1 [12] = experiment: as above
Method in brief: as §1

BT-474 = experiment: as above
Method in brief: as §1

CAL-85-1 [13] = experiment: as above
Method in brief: as §1

HCC1143 = experiment: as above
Method in brief: as §1

CAL-148 [14] = experiment: as above
Method in brief: as §1

MDA-MB-453 [15] = experiment: as above
Method in brief: as §1

MCF-10A = experiment: as above
Method in brief: as §1

MDA-MB-231 = experiment: as above
Method in brief: as §1

HCC1599 = experiment: as above
Method in brief: as §1

DU-4475 [16] = experiment: as above
Method in brief: as §1

SK-BR-3 = experiment: as above
Method in brief: as §1

Hs578T = experiment: as above
Method in brief: as §1

MDA-MB-468 [17] = experiment: as above
Method in brief: as §1

CAL-51 [18] = experiment: as above
Method in brief: as §1

MFM-223 = experiment: as above
Method in brief: as §1

HCC1937 = experiment: as above
Method in brief: as §1

Row | Structure (SMILES) | normalised response (MDA-MB-436 [1]) | normalised response (CAL-85-1 [2]) | normalised response (MDA-MB-453 [3]) | normalised response (MDA-MB-468 [4]) | normalised viability (HDQ-P1 [5]) | normalised viability (CAL-85-1 [6]) | normalised viability (CAL-148 [7]) | normalised viability (MDA-MB-453 [8]) | normalised viability (DU-4475 [9]) | normalised viability (CAL-51 [10]) | normalised response (MDA-MB-436 [11]) | normalised response (BT-549) | normalised response (CAL-120) | normalised response (HDQ-P1 [12]) | normalised response (BT-474) | normalised response (CAL-85-1 [13]) | normalised response (HCC1143) | normalised response (CAL-148 [14]) | normalised response (MDA-MB-453 [15]) | normalised response (MCF-10A) | normalised response (MDA-MB-231) | normalised response (HCC1599) | normalised response (DU-4475 [16]) | normalised response (SK-BR-3) | normalised response (Hs578T) | normalised response (MDA-MB-468 [17]) | normalised response (CAL-51 [18]) | normalised response (MFM-223) | normalised response (HCC1937)
1 | CCC1=C[C@@H]2CN(C1)Cc1c([nH]c3ccccc13)[C@@](C(=O)OC)(c1cc3c(cc1OC)N(C)[C@H]1[C@@](O)(C(=O)OC)[C@H](OC(C)=O)[C@]4(CC)C=CCN5CC[C@]31[C@@H]54)C2 [Vinorelbine] (10000 nM) | 70.8% | 71% | 90.3% | 5.11% | 38.9% | 44.2% | 30.3% | 29.4% | 9.67% | 11.5% | 24.5% | 36.1% | 54% | 70.6% | 48.2% | 48.9% | 55.3% | 49.6% | 53.8% | 78.3% | 40.1% | 4.45% | 40.4% | 14.8% | 15.9% | 18.1% | 27.5% | 39.6% | 69.8%
2 | COc1cc([C@@H]2c3cc4c(cc3[C@@H](O[C@@H]3O[C@@H]5CO[C@@H](C)O[C@H]5[C@H](O)[C@H]3O)[C@H]3COC(=O)[C@H]23)OCO4)cc(OC)c1O [Etoposide] (10000 nM) | 80.9% | 34.3% | 109% | -48% | 62.6% | 63.1% | 31.7% | 61.4% | 4.57% | 18.4% | 36.6% | 35.9% | 73.7% | 82.3% | 44.1% | 49.8% | 38.8% | 39.9% | 142% | 87.1% | 70.8% | 11.8% | 19.6% | 15.8% | 67.3% | 38.5% | 23.9% | 90.8% | 67.5%
3 | CN(N=O)C(=O)N[C@@H](C=O)[C@@H](O)[C@H](O)[C@H](O)CO [Streptozocin] (10000 nM) | 68.7% | 80.7% | 84.9% | 64.1% | 122% | 91.1% | 105% | 99.1% | 92.6% | 101% | 97.2% | 97.7% | 109% | 102% | 100% | 98.5% | 106% | 107% | 95.6% | 110% | 98% | 92.5% | 96.1% | 108% | 109% | 104% | 91.8% | 106% | 105%
